Measured values as given in patent US20240207267A1, “(R)-Glutarimide CRBN Ligands and Methods of Use” (BeiGene Switzerland GmbH, priority 2021, published 2024).

Legend:
CRBN&DDB1 protein = CRBN&DDB1 protein (Homo sapiens (Human), UniProt Q96SW2); assay: CRBN&DDB1 HTRF (TR-FRET) assay, blocking binding of biotin labeled thalidomide; conditions: CRBN&DDB1 protein (His Tag), 30 nM biotin labeled thalidomide
Procedure: Biochemical potency of compound was determined by using CRBN& DDB1 protein (His Tag). Compounds were tested for blocking the binding of CRBN&DDB1 protein (CRBN, aa 40-442, DDB1, 1-1140, Viva Biotech) with biotin labeled thalidomide in an assay based on the time-resolved fluorescence-resonance energy transfer (TR-FRET) methodology. The assay was carried out in 384-well low volume black plates in a reaction mixture containing CRBN& DDB1 protein, 30 nM biotin labeled thalidomide and 0-10 μM compound in buffer containing 50 mM HEPES pH7.5, 50 mM NaCl, 0.01% BSA, 1 mM DTT and 0.015% Brij-35. The protein was preincubated with compound for 60 minutes at room temperature and biotin labeled thalidomide was added to plate. After further incubation at room temperature for 60 minutes detection reagents Mab Anti-6His Eu cryptate Gold (Cisbio, Cat #61HI2KLB) and Streptavidin-XL665 (Cisbio, Cat #610SAXLG) were added to plate. Plates were sealed and incubated at room temperature for 1 hour, and the TR-FRET signals (ex337 nm, em665 nm/620 nm) were recorded on a PHERAstar FSX plate reader (BMG Labtech). The inhibition percentage of CRBN& DDB1 protein interaction with biotin labeled thalidomide in presence of increasing concentrations of compounds was calculated based on the ratio of fluorescence at 665 nm to that at 620 nm. IC50 was derived from fitting the dose-response % inhibition data to the four-parameter logistic model by Dotmatics.
Four-parameter logistic equation: Y=Bottom+(Top−Bottom)/(1+10^((LogIC50−X) *HillSlope)). While X is Log of compound concentration. Y is % inhibition at X. Bottom is the bottom of the curve effect. Top is the top of the curve effect. HillSlope is the hill slope factor.

[1] = system: EGFR Del19/T790M/C797S (BaF3-DTC cells); assay: EGFR degradation HTRF assay in BaF3-DTC cells; format: cell-based; conditions: 16 h treatment, Table 1; for DTC Dmax: maximum percentage of degradation
Procedure: (§1) BaF3-LTC(L858R/T790M/C797S) and BaF3-DTC(Del19/T790M/C797S) cells are treated with compounds diluted in 0.2% DMSO cell culture medium and incubate for 16 h, 37° C., 5% CO2, H1975- #28 cells are treated with compounds diluted in 0.2% DMSO cell culture medium on day 2, incubate for 16 h, 37° C., 5% CO2. the final concentration of compounds in all assay is start with 10 uM, 5-fold dilution, total 8 doses were included.
(§2) After 16 h treatment, add HTRF lysis buffer to each well; seal the plate and incubate 1 hour at room temperature on a plate shaker; Once the cells are lysed, 16 μL of cell lysate are transferred to a PE 384-well HTRF detection plate; 4 μL of pre-mixed HTRF antibodies are added to each well; Cover the plate with a plate sealer, spin 1000 rpm for 1 min, Incubate overnight at room temperature; Read on BMG PheraStar with HTRF protocol (337 nm-665 nm-620 nm).
(§3) The IC50 (DC50) value of a compound can be obtained by fitting the following equation
(§4) Y=Bottom+(TOP−Bottom)/(1+((IC50/X)^hillslope))
(§5) Wherein, X and Y are known values, and IC50, Hillslope, Top and Bottom are the parameters obtained by fitting with software. Y is the inhibition percentage (calculated from the equation), X is the concentration of the compound; IC50 is the concentration of the compound when the 50% inhibition is reached. The smaller the IC50 value is, the stronger the inhibitory ability of the compound is. Vice versa, the higher the IC50 value is, the weaker the ability the inhibitory ability of the compound is; Hillslope represents the slope of the fitted curve, generally around 1*; Bottom represents the minimum value of the curve obtained by data fitting, which is generally 0%±20%; Top represents the maximum value of the curve obtained by data fitting, which is generally 100%±20%. The experimental data were fitted by calculating and analyzing with Dotmatics data analysis software.

[2] = biological target: EGFR L858R/T790M/C797S (BaF3-LTC cells) (Homo sapiens (Human), UniProt P00533, C797S/L858R/T790M); assay: EGFR degradation HTRF assay in BaF3-LTC cells; format: cell-based; conditions: 16 h treatment; for DC50: Table 1, read-out: LTC DC50; for Dmax: maximum percentage of degradation, Table 1, read-out: LTC Dmax
Procedure: as §1, §2, §3, §4, §5

BTK (TMD-8 cells) = BTK (TMD-8 cells) (Homo sapiens (Human), UniProt Q06187); assay: BTK degradation HTRF assay in TMD-8 cells (Test Example 3); format: cell-based; conditions: 6 h treatment, Table 5
Procedure: TMD-8 cells were treated with compounds diluted in 0.2% DMSO, dilution was done according to the following protocol: (1) making 500× stock solution in DMSO from 1 mM by 6-fold dilution, total 8 doses were included; (2) making 2× solution in cell culture medium by transferring 0.5 μl 500× stock solution into […]; (3) adding 15 μl of 2× solution to cells for incubation of 6 h.
After 6 h treatment, 10 μl 4xlysis buffer was added to each well; the plate was sealed and incubated for 30 min at room temperature on a plate shaker; Once the cells was lysed, 16 μL of cell lysate were transferred to a PE 384-well HTRF detection plate; 4 μL of pre-mixed HTRF antibodies were added to each well; the plate was covered with a plate sealer, and then spinned at 1000 rpm for 1 min, then incubated overnight at room temperature; the results were read on BMG PheraStar with HTRF protocol (337 nm-665 nm-620 nm).
as §3, §4
as §5, with “wherein,” for “Wherein,”

HEK-293 cells = assay: HEK-293 cytotoxicity detection (CellTiter-Glo); format: cell-based; conditions: Homo sapiens, HEK293, 72 h incubation
Procedure: HEK-293 cells were treated with compounds diluted in 0.2% DMSO, dilution was done according to the following protocol: (1) making 500× stock solution in DMSO from 5 mM by 4-fold dilution, total 8 doses were included; (2) making 2× solution in cell culture medium by transferring 0.5ul 500× stock solution into 125ul medium; (3) adding 50ul of 2× solution to cells for incubation of 72 h.
25 μl of the CellTiter-Glo®Reagent [(Promega) - Cat No. G7572] was added to each well in the 96-well plate. The contents were mixed for 2 minutes on an orbital shaker to induce cell lysis. The plate was then allowed to incubate at room temperature for 10 minutes to stabilize luminescent signal. Luminescence was recorded on BMG PheraStar with luminescence protocol.
The IC50 value of a compound can be obtained by fitting the following equation
as §4, §5

BTK (TMD-8 cells), sequence (Q06187 whole entry): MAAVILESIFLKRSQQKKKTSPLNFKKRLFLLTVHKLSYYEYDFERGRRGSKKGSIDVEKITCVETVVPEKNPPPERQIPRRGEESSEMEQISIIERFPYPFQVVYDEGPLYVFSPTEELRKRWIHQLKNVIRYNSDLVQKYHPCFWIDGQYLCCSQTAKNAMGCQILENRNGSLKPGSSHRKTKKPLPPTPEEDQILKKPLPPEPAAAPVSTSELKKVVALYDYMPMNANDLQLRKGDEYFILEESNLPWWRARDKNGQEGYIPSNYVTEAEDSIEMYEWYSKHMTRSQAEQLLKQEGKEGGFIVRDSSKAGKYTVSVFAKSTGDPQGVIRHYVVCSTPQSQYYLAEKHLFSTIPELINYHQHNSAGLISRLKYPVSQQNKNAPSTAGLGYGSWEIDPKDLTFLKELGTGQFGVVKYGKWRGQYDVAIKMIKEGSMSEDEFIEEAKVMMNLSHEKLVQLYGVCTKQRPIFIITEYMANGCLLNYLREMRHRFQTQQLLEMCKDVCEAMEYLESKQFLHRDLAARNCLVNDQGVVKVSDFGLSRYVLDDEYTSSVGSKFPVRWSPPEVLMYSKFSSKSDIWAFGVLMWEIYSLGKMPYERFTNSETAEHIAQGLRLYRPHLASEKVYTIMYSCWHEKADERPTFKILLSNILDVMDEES
EGFR L858R/T790M/C797S (BaF3-LTC cells), sequence (P00533 25-1210 T790M/C797S/L858R): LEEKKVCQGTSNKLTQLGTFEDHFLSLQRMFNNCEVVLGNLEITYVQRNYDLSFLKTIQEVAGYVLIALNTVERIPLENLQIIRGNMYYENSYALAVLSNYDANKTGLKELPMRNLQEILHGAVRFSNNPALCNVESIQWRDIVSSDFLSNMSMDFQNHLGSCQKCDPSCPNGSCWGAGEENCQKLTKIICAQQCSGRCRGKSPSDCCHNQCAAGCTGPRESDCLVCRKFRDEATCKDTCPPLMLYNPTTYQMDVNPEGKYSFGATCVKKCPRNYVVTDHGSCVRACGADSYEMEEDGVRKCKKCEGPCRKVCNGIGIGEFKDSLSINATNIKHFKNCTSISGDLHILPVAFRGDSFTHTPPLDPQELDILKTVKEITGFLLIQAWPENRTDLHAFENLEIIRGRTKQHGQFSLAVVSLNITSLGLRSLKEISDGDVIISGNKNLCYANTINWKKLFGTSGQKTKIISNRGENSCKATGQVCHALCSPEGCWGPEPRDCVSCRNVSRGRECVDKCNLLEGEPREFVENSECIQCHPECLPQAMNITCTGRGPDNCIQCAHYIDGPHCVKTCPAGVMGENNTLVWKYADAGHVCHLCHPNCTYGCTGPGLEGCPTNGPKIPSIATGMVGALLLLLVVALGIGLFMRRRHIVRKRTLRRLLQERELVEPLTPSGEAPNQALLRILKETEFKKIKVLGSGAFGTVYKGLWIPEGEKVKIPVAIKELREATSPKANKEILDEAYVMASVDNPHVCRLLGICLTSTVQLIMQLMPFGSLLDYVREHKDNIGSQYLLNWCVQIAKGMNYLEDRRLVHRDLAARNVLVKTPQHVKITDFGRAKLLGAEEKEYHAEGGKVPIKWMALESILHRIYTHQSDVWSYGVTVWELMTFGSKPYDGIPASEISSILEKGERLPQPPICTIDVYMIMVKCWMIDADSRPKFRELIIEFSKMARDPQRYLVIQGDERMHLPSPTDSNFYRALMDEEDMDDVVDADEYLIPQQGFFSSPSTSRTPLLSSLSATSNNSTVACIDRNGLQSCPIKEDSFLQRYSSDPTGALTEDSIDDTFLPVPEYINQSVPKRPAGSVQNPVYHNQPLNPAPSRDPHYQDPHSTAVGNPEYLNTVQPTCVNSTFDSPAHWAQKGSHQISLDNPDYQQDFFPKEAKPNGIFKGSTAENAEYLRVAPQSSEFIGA
CRBN&DDB1 protein, sequence (Q96SW2 40-442): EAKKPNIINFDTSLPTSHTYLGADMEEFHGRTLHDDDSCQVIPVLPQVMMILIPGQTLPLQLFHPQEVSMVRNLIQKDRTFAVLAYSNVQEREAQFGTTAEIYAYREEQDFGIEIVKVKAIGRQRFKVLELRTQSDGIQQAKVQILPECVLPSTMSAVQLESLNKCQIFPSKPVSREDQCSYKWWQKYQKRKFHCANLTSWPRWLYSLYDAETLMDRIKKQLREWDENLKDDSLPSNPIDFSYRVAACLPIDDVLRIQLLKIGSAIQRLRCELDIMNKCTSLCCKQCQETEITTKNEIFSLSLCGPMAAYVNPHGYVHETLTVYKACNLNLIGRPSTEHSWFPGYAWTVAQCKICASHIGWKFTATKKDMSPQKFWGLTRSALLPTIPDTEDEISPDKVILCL
CRBN&DDB1 protein, sequence (Q16531 whole entry partner, the tested form may be a part): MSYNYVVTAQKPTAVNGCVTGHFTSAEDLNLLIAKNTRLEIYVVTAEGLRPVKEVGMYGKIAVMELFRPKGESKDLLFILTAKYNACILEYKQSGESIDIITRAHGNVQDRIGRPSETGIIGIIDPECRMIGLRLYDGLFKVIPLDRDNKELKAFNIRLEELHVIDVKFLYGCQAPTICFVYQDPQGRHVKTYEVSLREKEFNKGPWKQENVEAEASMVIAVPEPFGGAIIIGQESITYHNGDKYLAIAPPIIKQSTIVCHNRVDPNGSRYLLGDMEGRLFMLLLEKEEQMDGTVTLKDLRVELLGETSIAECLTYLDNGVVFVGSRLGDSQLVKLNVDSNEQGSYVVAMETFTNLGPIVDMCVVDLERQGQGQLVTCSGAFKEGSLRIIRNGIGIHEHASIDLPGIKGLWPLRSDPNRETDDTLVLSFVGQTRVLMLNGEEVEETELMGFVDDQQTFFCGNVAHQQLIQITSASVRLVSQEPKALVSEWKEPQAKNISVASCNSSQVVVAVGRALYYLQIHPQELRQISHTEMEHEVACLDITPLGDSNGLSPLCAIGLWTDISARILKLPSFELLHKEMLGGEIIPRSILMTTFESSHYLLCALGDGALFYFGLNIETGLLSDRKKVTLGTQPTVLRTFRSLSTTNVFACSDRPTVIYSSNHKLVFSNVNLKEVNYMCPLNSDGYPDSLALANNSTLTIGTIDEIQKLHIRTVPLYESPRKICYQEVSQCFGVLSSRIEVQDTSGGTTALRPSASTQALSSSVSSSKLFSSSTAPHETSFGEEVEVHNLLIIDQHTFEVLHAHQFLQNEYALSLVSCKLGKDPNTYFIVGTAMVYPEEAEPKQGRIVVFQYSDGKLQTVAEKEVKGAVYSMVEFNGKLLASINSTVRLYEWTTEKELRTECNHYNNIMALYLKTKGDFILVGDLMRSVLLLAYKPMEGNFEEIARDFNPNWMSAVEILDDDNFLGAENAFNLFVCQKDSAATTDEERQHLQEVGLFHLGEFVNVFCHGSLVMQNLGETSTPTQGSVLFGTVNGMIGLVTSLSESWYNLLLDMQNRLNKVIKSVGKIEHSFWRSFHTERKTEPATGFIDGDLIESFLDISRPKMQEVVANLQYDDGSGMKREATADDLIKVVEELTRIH

Row | SMILES | DC50 [1] [nM] | DC50 [2] [nM] | DC50 (BTK (TMD-8 cells)) [nM] | DTC Dmax [1] [%] | IC50 (HEK-293 cells) [nM] | other results
1 | CC1(C)CN(c2cc(F)c([C@H]3CCC(=O)NC3=O)c(F)c2)C[C@H]1C(=O)O [Example 14, (S)-1-(4-((R)-2,6-dioxopiperidin-3-yl)-3,5-difluorophenyl)-4,4-dimethylpyrrolidine-3-carboxylic acid] | – | – | – | – | – | IC50 (CRBN&DDB1 protein): 24 nM
2 | O=C1CCC(c2ccc(CCO)cc2)C(=O)N1 (stereo not drawn) [Example 15, 3-(4-(2-hydroxyethyl)phenyl)piperidine-2,6-dione] | – | – | – | – | – | IC50 (CRBN&DDB1 protein): 239 nM
3 | CCc1cc(Nc2ncc(Br)c(Nc3ccc4nccnc4c3P(C)(C)=O)n2)c(OC)cc1N1CCC(N2CCN(CCc3cc(F)c([C@H]4CCC(=O)NC4=O)c(F)c3)CC2)CC1 [Example 16, (R)-3-(4-(2-(4-(1-(4-((5-bromo-4-((5-(dimethylphosphoryl)quinoxalin-6-yl)amino)pyrimidin-2-yl)amino)-2-ethyl-5-methoxyphenyl)piperidin-4-yl)piperazin-1-yl)ethyl)-2,6-difluorophenyl)piperidine-2,6-dione] | 0.61 | 6.1 | – | 88.65 | – | Dmax [2]: 91.5%
4 | CCc1cc(Nc2ncc(Br)c(Nc3ccc4nccnc4c3P(C)(C)=O)n2)c(OC)cc1N1CCC(N2CCN(CCc3cc(F)c([C@@H]4CCC(=O)NC4=O)c(F)c3)CC2)CC1 [Example 17, (S)-3-(4-(2-(4-(1-(4-((5-bromo-4-((5-(dimethylphosphoryl)quinoxalin-6-yl)amino)pyrimidin-2-yl)amino)-2-ethyl-5-methoxyphenyl)piperidin-4-yl)piperazin-1-yl)ethyl)-2,6-difluorophenyl)piperidine-2,6-dione] | 6.75 | 45.1 | – | 64.81 | – | Dmax [2]: 84.6%
5 | CCc1cc(Nc2ncc(Br)c(Nc3ccc4nccnc4c3P(C)(C)=O)n2)c(OC)cc1N1CCC(N2CCN(CCc3cc(F)c(C4CCC(=O)NC4=O)c(F)c3)CC2)CC1 (stereo not drawn) [Example 18, 3-(4-(2-(4-(1-(4-((5-bromo-4-((5-(dimethylphosphoryl)quinoxalin-6-yl)amino)pyrimidin-2-yl)amino)-2-ethyl-5-methoxyphenyl)piperidin-4-yl)piperazin-1-yl)ethyl)-2,6-difluorophenyl)piperidine-2,6-dione] | 3.74 | 8.82 | – | 95.55 | – | –
6 | CCc1cc(Nc2ncc(Br)c(Nc3ccc4nccnc4c3P(C)(C)=O)n2)c(OC)cc1N1CCC(N2CCN(CCc3ccc(C4CCC(=O)NC4=O)cc3)CC2)CC1 (stereo not drawn) [Example 19, 3-(4-(2-(4-(1-(4-((5-bromo-4-((5-(dimethylphosphoryl)quinoxalin-6-yl)amino)pyrimidin-2-yl)amino)-2-ethyl-5-methoxyphenyl)piperidin-4-yl)piperazin-1-yl)ethyl)phenyl)piperidine-2,6-dione] | 6.87 | 18.2 | – | 92.16 | – | –

Further lines, with some results ahead:

Row | DC50 [1] [nM] | DC50 [2] [nM] | DC50 (BTK (TMD-8 cells)) [nM] | SMILES | DTC Dmax [1] [%] | IC50 (HEK-293 cells) [nM] | other results
7 | – | – | 2.32 | Cc1cccc(NC(=O)c2ccc(-c3nn4c(c3C(N)=O)Nc3ccc(N5CCN(CCc6cc(F)c([C@H]7CCC(=O)NC7=O)c(F)c6)CC5)cc3CC4)c(F)c2C)n1 [Example B35, (R)-7-(4-(4-(2,6-dioxopiperidin-3-yl)-3,5-difluorophenethyl)piperazin-1-yl)-2-(2-fluoro-3-methyl-4-((6-methylpyridin-2-yl)carbamoyl)phenyl)-9,10-dihydro-4H-benzo[d]pyrazolo[1,5-a][1,3]diazepine-3-carboxamide] | – | > 10000 | –
8 | – | – | 0.414 | Cc1c(C(=O)Nc2cn(C)cn2)ccc(-c2nn3c(c2C(N)=O)Nc2ccc(N4CCN(CCc5cc(F)c([C@H]6CCC(=O)NC6=O)c(F)c5)CC4)cc2CC3)c1F [Example B37, (R)-7-(4-(4-(2,6-dioxopiperidin-3-yl)-3,5-difluorophenethyl)piperazin-1-yl)-2-(2-fluoro-3-methyl-4-((1-methyl-1H-imidazol-4-yl)carbamoyl)phenyl)-9,10-dihydro-4H-benzo[d]pyrazolo[1,5-a][1,3]diazepine-3-carboxamide] | – | > 10000 | –
9 | – | – | 1.7 | Cc1c(C(=O)Nc2cscn2)ccc(-c2nn3c(c2C(N)=O)Nc2ccc(N4CCN(CCc5cc(F)c([C@H]6CCC(=O)NC6=O)c(F)c5)CC4)cc2CC3)c1F [Example B38, (R)-7-(4-(4-(2,6-dioxopiperidin-3-yl)-3,5-difluorophenethyl)piperazin-1-yl)-2-(2-fluoro-3-methyl-4-(thiazol-4-ylcarbamoyl)phenyl)-9,10-dihydro-4H-benzo[d]pyrazolo[1,5-a][1,3]diazepine-3-carboxamide] | – | 26.8 | –
10 | – | – | 242 | Cc1cc(-c2cc(Nc3cccc(N4CCN(CC5CCN(c6ccc(N7CCC(=O)NC7=O)cc6)CC5)CC4)c3)ncn2)c(F)cc1[C@@H](C)NC(=O)c1nc(C(C)(C)C)no1 [Example C39, (R)-3-(tert-butyl)-N-(1-(4-(6-((3-(4-((1-(4-(2,4-dioxotetrahydropyrimidin-1(21)-yl)phenyl)piperidin-4-yl)methyl)piperazin-1-yl)phenyl)amino)pyrimidin-4-yl)-5-fluoro-2-methylphenyl)ethyl)-1,2,4-oxadiazole-5-carboxamide] | – | > 10000 | –
